Experimental data from patent US20140309295A1, “ANTIEPILEPTIC, HYPOCHOLESTEROLEMIC AND NEUROPROTECTIVE COMPOUND” (NEURON BIOPHARMA, S.A., priority 2009, published 2014).

What was measured:
HMGR enzyme = target: T1, HMGR enzyme (Homo sapiens, UniProt P04035); assay: Inhibition of HMGR enzyme activity (NADPH absorbance 340 nm); type: biochemical; conditions: acid form, 37° C.
T1 sequence (P04035 426-888 limits assumed): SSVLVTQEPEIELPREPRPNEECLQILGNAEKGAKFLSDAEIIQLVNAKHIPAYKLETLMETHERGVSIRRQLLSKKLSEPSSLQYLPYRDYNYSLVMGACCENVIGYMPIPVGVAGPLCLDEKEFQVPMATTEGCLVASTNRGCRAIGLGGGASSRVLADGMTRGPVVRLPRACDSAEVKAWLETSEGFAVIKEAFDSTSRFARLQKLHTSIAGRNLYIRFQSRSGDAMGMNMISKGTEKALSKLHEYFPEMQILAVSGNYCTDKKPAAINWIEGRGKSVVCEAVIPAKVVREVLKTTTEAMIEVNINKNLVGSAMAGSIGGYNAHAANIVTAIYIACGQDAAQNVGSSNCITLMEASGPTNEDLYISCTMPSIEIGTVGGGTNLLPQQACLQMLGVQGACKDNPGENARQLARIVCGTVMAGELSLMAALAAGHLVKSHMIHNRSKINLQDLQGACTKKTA
Procedure: Due to the nature of the compound, the degree of inhibition of the HMGR enzyme by compound NST0037 was determined since this enzyme is key in cellular cholesterol synthesis and in the physiological regulation of said synthesis. […] For the reaction, HMGR uses NADPH as a reducing agent and 3-hydroxy-3-methylglutaryl coenzyme A (HMGCoA) as a substrate, producing mevalonic acid, CoASH and NADP+. The reduction of the absorbance at which NADPH (340 nm) is absorbed is a direct measurement of the catalytic activity of HMGR and serves to calculate the inhibition percentages of different compounds. In order to take the HMGR inhibition, the assay was performed on a 96-well plate, with a total reaction volume of 200 μl. The reaction buffer (50 mM KH2PO4, 1 M KCl, 2 mg/ml Bovine Serum Albumin [BSA] and 5 mM DTT, at pH=7.3) was prepared at the time the reaction was conducted and was maintained at 37° C. […] The acid form of the compounds is used in all the cases.
The reduction of absorbance at 340 nm allows calculating the percentage of HMGR enzyme activity with respect to the control. The IC50 were determined by means of the Trimmed Spearman-Karber method (Version 1.5).

[1] = tested on: human neuroblastoma SK-N-MC cells; assay: Protection against neuronal death induced by endoplasmic reticulum stress (tunicamycin), WST-1; type: cell-based; conditions: 40 μM NST0037; 24 μM tunicamycin
Procedure: The assay was performed on human neuroblastoma SK-N-MC cells in culture from the American Type Culture Collection (ATCC), in all cases strict rules of sterility were followed and the manipulation was performed in class II biological safety cabinets following European standard EN 12469. The cells were maintained in the following culture medium: Minimum Essential Medium Eagle (MEM) supplemented with 1 mM sodium pyruvate, 2 mM L-glutamine, 0.1 mM non-essential amino acids, 0.05 mg/ml gentamicin and 10% fetal bovine serum.
The inhibition caused by compound NST0037 of cell death caused by treatment with tunicamycin generating reticular stress was analyzed. Tunicamycin is an inhibitor of protein N-glycosylation, causing abnormal protein folding in the endoplasmic reticulum, therefore said proteins are accumulated and cause stress, resulting in cell death. These cells, not exceeding 15 passages, were seeded on 96-well plates treated for adherent cells with a cell concentration of 5×10^4 cells/well; 3 wells of the plate were seeded for each condition of the assay. […]
The cells were incubated (at 37° C. and 5% CO2) with these treatments for 22 hours, after which time WST-1 reagent (Roche) was added. […] The formazan that is formed can be detected colorimetrically since it has an absorbance of 440 nm. The reading was taken in a plate reader at 440 nm 2 hours after adding the reagent.

[2] = Lethality by constant exposure in water (4 days) in adult zebrafish (OECD 203); type: in vivo; conditions: zebrafish, in vivo; 4 days of continuous treatment in water
Procedure: (§1) The object of this assay is to determine the acute lethal toxicity of a substance on freshwater fish. Acute toxicity is the distinguishable adverse effect induced in an organism as a result of the exposure to a given substance for a short time period (days).
(§2) The deaths of the animals under study during the entire time of the assay were recorded as a toxicity parameter.
(§3) To that end, the fish that survived the treatment were sacrificed at 4 days post-treatment (previously anesthetized) and the samples (whole fish) were included in paraffin. The hematoxylin-eosin staining was subsequently performed in order to conduct the histopathological studies, obtaining a minimum of 6 longitudinal sections per animal, for the purpose of collecting different study areas of the same organ. The following organs were studied: brain, kidney, pancreas, intestine, eye, gills, ovary, testicle, muscle and liver.

adult zebrafish = assay: as above; type: in vivo; conditions: for histopathology: ovary / Mortality (dead animals/total): 4 days
Procedure: as §1, §2, §3

CCC(CC)C(=O)O[C@H]1C[C@@H](C)C=C2C=C[C@H](C)[C@H](CC[C@@H]3C[C@@H](O)CC(=O)O3)[C@H]21 [NST0037, (1S,2S,6R,8S,8aR)-1,2,6,7,8,8a-hexahydro-3,7-dimethyl-8-[2-[(2R,4R)-tetrahydro-4-hydroxy-6-oxo-2H-pyran-2-yl]ethyl]-1-naphthalenyl-2-ethyl-butyrate]
HMGR inhibition potency compared with atorvastatin (HMGR enzyme): surprisingly close to that of more potent statin, atorvastatin | protection against death caused by Tm [1]: 55% | LD50 at 4 days [2]: > 100 mg/kg | histopathology: ovary (adult zebrafish; 30 mg/kg): not being observed | histopathology: ovary (adult zebrafish; 100 mg/Kg): presented ovarian damage | Mortality (dead animals/total) (adult zebrafish; Dose 1 mg/kg): 0/7 | Mortality (dead animals/total) (adult zebrafish; Dose 3.2 mg/kg): 0/7 | Mortality (dead animals/total) (adult zebrafish; Dose 10 mg/kg): 0/7 | Mortality (dead animals/total) (adult zebrafish; Dose 32 mg/kg): 0/7 | Mortality (dead animals/total) (adult zebrafish; Dose 100 mg/kg): 1/7 | percentage of mortality (adult zebrafish; day 4 post-treatment (100 mg/kg group)): 14%
